Patent EP2886105B1, “Controlled-release formulations” (CAMURUS AB, priority 2007, dated 2018)
Where a name gives a salt, the structure may show the parent alone.

Key:
[1] = In vivo release of SOM after subcutaneous injection, plasma SOM by ELISA; parameters: species or system rat
Description: A liquid lipid formulation comprising SPC/GDO/EtOH = 44/44/12 wt% was prepared as described in Example 1.
A freeze-dried powder of SOM (MW ca 1.6 kDa) and TRE was prepared in the same way as in Example 4 giving a SOM (free base)-to-TRE weight ratio of 1:2.5.
The freeze-dried powder was added to the lipid formulation such that the final SOM (free base) concentration in the formulation was 2 wt% (ca 20 mg/mL) followed by end-over-end rotation for 1 day. […] The final filter-sterilized formulation was then injected subcutaneously to rats (male Sprague-Dawley).
In the in vivo rat model the release of SOM was followed during 14 days. The formulations were administered subcutaneously between the scapulae by using a syringe (23G, 0.6mm × 25mm). The SOM concentration in the rat plasma was quantified using a commercial ELISA kit (S-1164, Bachem/Peninsula Laboratories, LOQ = 0.03 ng/mL). The dose was 20 mg/kg and dose volume was 1 mL/kg corresponding to a drug load of 2.0wt% SOM (free base).

[2] = natural Somatostatin; cited from earlier work
[3] = cited from earlier work

For `C[C@H](N)C(=O)NCC(=O)N[C@H]1CSSC[C@@H](C(=O)O)NC(=O)[C@H](CO)NC(=O)[C@H]([C@@H](C)O)NC(=O)[C@H](Cc2ccccc2)NC(=O)[C@H]([C@@H](C)O)NC(=O)[C@H](CCCCN)NC(=O)[C@H](Cc2c[nH]c3ccccc23)NC(=O)[C@H](Cc2ccccc2)NC(=O)[C@H](Cc2ccccc2)NC(=O)[C@H](CC(N)=O)NC(=O)[C@H](CCCCN)NC1=O` [SOM, Somatostatin, acetate salt], the Release profile ([1]; rat plasma, subcutaneous, 20 mg/kg SOM lipid formulation, low initial release) was “without a burst effect”, the “SOM levels higher than the endogenous SOM levels (factor)” value ([1]; rat plasma, versus placebo formulation, depending on time point, over at least 14 days, s.c. 20 mg/kg) was 2-9 and the Duration of release ([1]; rat, subcutaneous, 20 mg/kg SOM lipid formulation) was “at least 14 days”. For the same molecule, the biological half-life [2] was 1-3 minutes and the “half-life of SOM in rat plasma” value [3] was “a few minutes”.
